Laboratory results reported in publication PMC4410398, “Influence of Drug Resistance Mutations on the Activity of HIV-1 Subtypes A and B Integrases: a Comparative Study” (Acta Naturae, 2015).

Experiments:
INB G118R/E138K = target: T1, INB G118R/E138K (Human immunodeficiency virus type 1 group M subtype B, UniProt P04585, E1285K/G1265R); assay: Inhibition of homologous strand transfer reaction, INB G118R/E138K; type: biochemical, HIV-1 subtype B strain HXB-2
T1 construct: The viral enzyme integrase (IN), which catalyzes the integration; His6 (N); made in house; host or cells: Escherichia coli Rosetta (DE3), pET-15b

INA G140S/Q148K = INA G140S/Q148K (Human immunodeficiency virus type 1 group M subtype A, UniProt P24740, G1280S/Q1288K/S1259P); type: biochemical, HIV-1 subtype A strain FSU-A
INA E138K/Q148K = INA E138K/Q148K (Human immunodeficiency virus type 1 group M subtype A, UniProt P24740, E1278K/Q1288K/S1259P); type: biochemical, HIV-1 subtype A strain FSU-A
INA G140S = INA G140S (Human immunodeficiency virus type 1 group M subtype A, UniProt P24740, G1280S/S1259P); type: biochemical, HIV-1 subtype A strain FSU-A
INA Q148K = INA Q148K (Human immunodeficiency virus type 1 group M subtype A, UniProt P24740, Q1288K/S1259P); type: biochemical, HIV-1 subtype A strain FSU-A
INB E138K/Q148K = target: T2, INB E138K/Q148K (Human immunodeficiency virus type 1 group M subtype B, UniProt P04585, E1285K/Q1295K); assay: Inhibition of homologous strand transfer reaction, INB E138K/Q148K; type: biochemical, HIV-1 subtype B strain HXB-2
T2 construct: The viral enzyme integrase (IN), which catalyzes the integration; His6 (N); made in house; host or cells: Escherichia coli Rosetta (DE3), pET-15b

INB G140S/Q148K = target: T3, INB G140S/Q148K (Human immunodeficiency virus type 1 group M subtype B, UniProt P04585, G1287S/Q1295K); assay: Inhibition of homologous strand transfer reaction, INB G140S/Q148K; type: biochemical, HIV-1 subtype B strain HXB-2
T3 construct: The viral enzyme integrase (IN), which catalyzes the integration; His6 (N); made in house; host or cells: Escherichia coli Rosetta (DE3), pET-15b

[1] = target: T4, INB (integrase of HIV-1 subtype B strain HXB-2), wild type (Human immunodeficiency virus type 1 group M subtype B, UniProt P04585); type: biochemical
T4 construct: The viral enzyme integrase (IN), which catalyzes the integration; His6 (N); made in house; host or cells: Escherichia coli Rosetta (DE3), pET-15b

INB = test system: INB; parameters: method as in PMID 23075516; details: literature value for INB; cited from earlier work
INB G140S = target: T5, INB G140S (Human immunodeficiency virus type 1 group M subtype B, UniProt P04585, G1287S); assay: Inhibition of homologous strand transfer reaction, INB G140S; type: biochemical, HIV-1 subtype B strain HXB-2
T5 construct: The viral enzyme integrase (IN), which catalyzes the integration; His6 (N); made in house; host or cells: Escherichia coli Rosetta (DE3), pET-15b

INB E138K = target: T6, INB E138K (Human immunodeficiency virus type 1 group M subtype B, UniProt P04585, E1285K); assay: Inhibition of homologous strand transfer reaction, INB E138K; type: biochemical, HIV-1 subtype B strain HXB-2
T6 construct: The viral enzyme integrase (IN), which catalyzes the integration; His6 (N); made in house; host or cells: Escherichia coli Rosetta (DE3), pET-15b

INB Q148K = target: T7, INB Q148K (Human immunodeficiency virus type 1 group M subtype B, UniProt P04585, Q1295K); assay: Inhibition of homologous strand transfer reaction, INB Q148K; type: biochemical, HIV-1 subtype B strain HXB-2
T7 construct: The viral enzyme integrase (IN), which catalyzes the integration; His6 (N); made in house; host or cells: Escherichia coli Rosetta (DE3), pET-15b

INA G118R = INA G118R (Human immunodeficiency virus type 1 group M subtype A, UniProt P24740, G1258R/S1259P); type: biochemical, HIV-1 subtype A strain FSU-A
INB G118R = target: T8, INB G118R (Human immunodeficiency virus type 1 group M subtype B, UniProt P04585, G1265R); assay: Inhibition of homologous strand transfer reaction, INB G118R; type: biochemical, HIV-1 subtype B strain HXB-2
T8 construct: The viral enzyme integrase (IN), which catalyzes the integration; His6 (N); made in house; host or cells: Escherichia coli Rosetta (DE3), pET-15b

INA G118R/E138K = INA G118R/E138K (Human immunodeficiency virus type 1 group M subtype A, UniProt P24740, E1278K/G1258R/S1259P); type: biochemical, HIV-1 subtype A strain FSU-A
[2] = target: INA (consensus integrase of HIV-1 subtype A strain FSU-A), wild type (Human immunodeficiency virus type 1 group M subtype A, UniProt P24740, S1259P); type: biochemical
INA E138K = INA E138K (Human immunodeficiency virus type 1 group M subtype A, UniProt P24740, E1278K/S1259P); type: biochemical, HIV-1 subtype A strain FSU-A
[3] = test system: HIV-1 subtype CRF02_A/G isolate carrying a G118R substitution in the IN gene; parameters: method as in PMID 24710029; details: HIV-1 subtype CRF02_A/G isolate carrying G118R in the IN gene; cited from earlier work
[4] = test system: HIV-1 subtype B (clone pNL4-3) carrying G118R; parameters: method as in PMID 24710029; details: cited from earlier work
[5] = homologous strand transfer, 2 h, 100 nM IN, read-out: Inhibitory activity, IC50

CN(C)S(=O)(=O)c1cc(O)c(O)c2c1CN(Cc1ccc(F)c(Cl)c1)C2=O [XZ-259]
ratio of IC50 for mutants over wt (FC) (INB G118R/E138K): 1.2 | IC50 (INB G118R/E138K; [5]): 80 ± 15 nM | ratio of IC50 for mutants over wt (FC) (INA G140S/Q148K): 15 | IC50 (INA G140S/Q148K; [5]): 600 ± 150 nM | ratio of IC50 for mutants over wt (FC) (INA E138K/Q148K): 5 | IC50 (INA E138K/Q148K; [5]): 200 ± 50 nM | ratio of IC50 for mutants over wt (FC) (INA G140S): 3.8 | IC50 (INA G140S; [5]): 150 ± 50 nM | ratio of IC50 for mutants over wt (FC) (INA Q148K): 8.8 | IC50 (INA Q148K; [5]): 350 ± 100 nM | ratio of IC50 for mutants over wt (FC) (INB E138K/Q148K): 7.7 | IC50 (INB E138K/Q148K; [5]): 500 ± 200 nM | ratio of IC50 for mutants over wt (FC) (INB G140S/Q148K): 13 | IC50 (INB G140S/Q148K; [5]): 850 ± 100 nM | ratio of IC50 for mutants over wt (FC) [1]: 1 | IC50 [1, 5]: 65 ± 10 nM | IC50 (INB): 77 nM | ratio of IC50 for mutants over wt (FC) (INB G140S): 2.3 | IC50 (INB G140S; [5]): 150 ± 50 nM | ratio of IC50 for mutants over wt (FC) (INB E138K): 1 | IC50 (INB E138K; [5]): 70 ± 10 nM | ratio of IC50 for mutants over wt (FC) (INB Q148K): 9.2 | IC50 (INB Q148K; [5]): 600 ± 100 nM | ratio of IC50 for mutants over wt (FC) (INA G118R): 1 | IC50 (INA G118R; [5]): 40 ± 10 nM | ratio of IC50 for mutants over wt (FC) (INB G118R): 1.2 | IC50 (INB G118R; [5]): 80 ± 20 nM | ratio of IC50 for mutants over wt (FC) (INA G118R/E138K): 0.75 | IC50 (INA G118R/E138K; [5]): 30 ± 10 nM | ratio of IC50 for mutants over wt (FC) [2]: 1 | IC50 [2, 5]: 40 ± 15 nM | ratio of IC50 for mutants over wt (FC) (INA E138K): 1.25 | IC50 (INA E138K; [5]): 50 ± 15 nM

C[C@@H]1CCO[C@H]2Cn3cc(C(=O)NCc4ccc(F)cc4F)c(=O)c(O)c3C(=O)N12 [DTG, dolutegravir]
FC (resistance) [3]: > 100 | FC (resistance) [4]: 10
